Patent US20060020110A1, “Synthetic peptides that bind to the hepatitis B virus core and E antigens” (priority 2000, published 2006)

Assays:
HBcAg [1] = target: T1, HBcAg (Hepatitis B virus genotype D subtype ayw, UniProt P03146); details: for OD at 405 nm to indicated antigen: HBcAg 0.2 μg/well / OD at 405 nm to indicated antigen: HBcAg 2 μg/well: support-bound peptide; for OD at 490 nm, HBcAg binding to support-bound amino terminal deletion peptides: HBcAg added at 5 μg/ml
Text: (§1) One approach to rational drug design involves sequential amino acid deletion of a known binding partner starting from either the amino or carboxy termini. Amino-terminal deletions of the binding partners of SEQ. ID. Nos. 5 and 17 were made and these peptide fragments were joined to a support and analyzed for the ability to bind HBcAg. […] ID. […] The amino-terminal deletions of the peptide of SEQ. ID. […] The amino-terminal deletion products of the peptide of SEQ. ID. […] ID.
To determine whether a candidate binding partner bound to HBcAg and/or HbeAg, a multimeric support-based binding assay was performed. Accordingly, synthetic peptides corresponding to the VH and VL domains of the sequenced mAbs were passively adsorbed to 96 well microplates in serial dilutions starting at 200 μg/ml. The peptide coated plates were then incubated with HBcAg and HBeAg serially diluted in PBS-GT. The amount of HBcAg and HBeAg bound by the peptides was then detected using a mAb directed to an epitope common to HBcAg and HBeAg (See Sällberg et al., J General Virology 74:1335-1340 (1993), herein expressly incorportaed by reference in its entirety) diluted 1:3000 in PBS-GT. The quantity of bound mAb was determined by addition by peroxidase labeled rabbit anti-mouse IgG (P260, Dako A S, Denmark). The plates were developed by incubation with ortho-phenylene-diamine (Sigma) and the absorbance at 492 nm was evaluated.
The converse of an aspect of this experiment was also performed. That is, various dilutions of support-bound binding partners (SEQ. ID. Nos. 5, 16, 17, 28, and 29) were contacted with 10 μg/ml of HBcAg and binding was evaluated. ID.

HBcAg [2] = target: T1, HBcAg; details: for OD at 490 nm, bound peptide SEQ. ID. No. 74: HBcAg coated 1 μg/ml, 5 μg SEQ. ID. No. 74 + 5 μg HBcAg peptide, no inhibitor OD 1.454; for Std. Deviation from the mean: deviation of the OD from the mean OD of all peptides
Experimental: In this experiment, microplates were coated overnight with 1 μg/ml HBcAg and, subsequently, a 100 μl mixture containing 5 μg of the peptide […] […] The HBcAg peptides were approximately 20 amino acids in length and corresponded to regions of HBcAg spanning amino acid residues 11-183. The experiment was performed in triplicate.

HBcAg [3] = target: T1, HBcAg; details: peptide added prior to addition of mAb; uninhibited control mean OD 0.871
Text: as §1
Variations of the characterization assays described above include competitive binding assays. […] Initial experiments were conducted by contacting binding partner to HBcAg prior to introducing the antibody. […] ID. […] ID. […] ID. […] ID. […] ID. […] ID.

T1 sequence (P03146 whole entry, the tested form may be a part): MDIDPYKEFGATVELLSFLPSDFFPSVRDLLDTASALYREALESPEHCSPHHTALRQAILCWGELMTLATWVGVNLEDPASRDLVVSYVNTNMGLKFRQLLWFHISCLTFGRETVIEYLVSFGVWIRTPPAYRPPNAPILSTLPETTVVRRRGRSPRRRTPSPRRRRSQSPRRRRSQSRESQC

Sequence: LVTVSAAKTTPPSVYPLVPV (Synthetically prepared amino acid sequence) [Peptide 35]
- OD at 405 nm to indicated antigen: HBcAg 0.2 μg/well (HBcAg [1]): 0.198
- OD at 405 nm to indicated antigen: HBcAg 2 μg/well (HBcAg [1]): 0.59

Sequence: SDFFPSVRDLLDTASALYRE [SEQ. ID. No. 97]
- OD at 490 nm, bound peptide SEQ. ID. No. 74 (HBcAg [2]): 1.576
- Std. Deviation from the mean (HBcAg [2]): 1.077

Sequence: VSTSSYSYMHWY [SEQ. ID. No. 60]
- OD at 490 nm, HBcAg binding to support-bound amino terminal deletion peptides (HBcAg [1]): 0.369

Sequence: GASVKLSCKASGYIFTS [SEQ. ID. No. 41]
- OD at 490 nm, HBcAg binding to support-bound amino terminal deletion peptides (HBcAg [1]): 2.863
- OD at 490 nm, mAb 4-2 binding to HBcAg (HBcAg [3]): 0.205

Sequence: TSSYSYMHWY [SEQ. ID. No. 62]
- OD at 490 nm, HBcAg binding to support-bound amino terminal deletion peptides (HBcAg [1]): 0.317

Sequence: ATVELLSFLPSDFFPSVRDL [SEQ. ID. No. 96]
- OD at 490 nm, bound peptide SEQ. ID. No. 74 (HBcAg [2]): 1.387
- Std. Deviation from the mean (HBcAg [2]): 0.696

Sequence: SVKLSCKASGYIFTS [SEQ. ID. No. 43]
- OD at 490 nm, HBcAg binding to support-bound amino terminal deletion peptides (HBcAg [1]): 3.364
- OD at 490 nm, mAb 4-2 binding to HBcAg (HBcAg [3]): 0.175

Sequence: RASQSVSTSSYSYMHWY [SEQ. ID. No. 55]
- OD at 490 nm, HBcAg binding to support-bound amino terminal deletion peptides (HBcAg [1]): 0.429

Sequence: AYRPPNAPILSTLPETTVVR [SEQ. ID. No. 108]
- OD at 490 nm, bound peptide SEQ. ID. No. 74 (HBcAg [2]): 1.564
- Std. Deviation from the mean (HBcAg [2]): 1.052

Sequence: RRGRSPRRRTPSPRRRRSQS [SEQ. ID. No. 110]
- OD at 490 nm, bound peptide SEQ. ID. No. 74 (HBcAg [2]): 0.732
- Std. Deviation from the mean (HBcAg [2]): −0.625

Sequence: STSSYSYMHWY [SEQ. ID. No. 61]
- OD at 490 nm, HBcAg binding to support-bound amino terminal deletion peptides (HBcAg [1]): 0.372

Sequence: SCKASGYIFTS [SEQ. ID. No. 47]
- OD at 490 nm, HBcAg binding to support-bound amino terminal deletion peptides (HBcAg [1]): 0.297
- OD at 490 nm, mAb 4-2 binding to HBcAg (HBcAg [3]): 0.784

Sequence: SQSVSTSSYSYMHWY [SEQ. ID. No. 57]
- OD at 490 nm, HBcAg binding to support-bound amino terminal deletion peptides (HBcAg [1]): 0.310

Sequence: LDTASALYREALESPEHCSP [SEQ. ID. No. 98]
- OD at 490 nm, bound peptide SEQ. ID. No. 74 (HBcAg [2]): 1.589
- Std. Deviation from the mean (HBcAg [2]): 1.103

Sequence: CKASGYIFTS [SEQ. ID. No. 48]
- OD at 490 nm, HBcAg binding to support-bound amino terminal deletion peptides (HBcAg [1]): 0.255
- OD at 490 nm, mAb 4-2 binding to HBcAg (HBcAg [3]): 0.851

Sequence: PGASVKLSCKASGYIFTS [SEQ. ID. No. 40]
- OD at 490 nm, HBcAg binding to support-bound amino terminal deletion peptides (HBcAg [1]): 1.722
- OD at 490 nm, mAb 4-2 binding to HBcAg (HBcAg [3]): 0.182

Sequence: GRETVIEYLVSFGVWIRTPP [SEQ. ID. No. 106]
- OD at 490 nm, bound peptide SEQ. ID. No. 74 (HBcAg [2]): 0.832
- Std. Deviation from the mean (HBcAg [2]): −0.423

Sequence: ELTRLTSEDSAVYFCARGDY (Synthetically prepared amino acid sequence) [Peptide 9]
- OD at 405 nm to indicated antigen: HBcAg 0.2 μg/well (HBcAg [1]): 0.195
- OD at 405 nm to indicated antigen: HBcAg 2 μg/well (HBcAg [1]): 0.574

Sequence: SSYSYMHWY [SEQ. ID. No. 63]
- OD at 490 nm, HBcAg binding to support-bound amino terminal deletion peptides (HBcAg [1]): 0.311

Sequence: LWFHISCLTFGRETVIEYLV [SEQ. ID. No. 105]
- OD at 490 nm, bound peptide SEQ. ID. No. 74 (HBcAg [2]): 1.129
- Std. Deviation from the mean (HBcAg [2]): .175

Sequence: STLPETTVVRRRGRSPRRRT [SEQ. ID. No. 109]
- OD at 490 nm, bound peptide SEQ. ID. No. 74 (HBcAg [2]): 0.811
- Std. Deviation from the mean (HBcAg [2]): −0.466

Sequence: ASGYIFTS [SEQ. ID. No. 50]
- OD at 490 nm, HBcAg binding to support-bound amino terminal deletion peptides (HBcAg [1]): 0.407
- OD at 490 nm, mAb 4-2 binding to HBcAg (HBcAg [3]): 0.920

Sequence: CKASGYIFTSYDIDWVRQTP (Synthetically prepared amino acid sequence) [Peptide 3]
- OD at 405 nm to indicated antigen: HBcAg 0.2 μg/well (HBcAg [1]): 0.187
- OD at 405 nm to indicated antigen: HBcAg 2 μg/well (HBcAg [1]): 0.525

Sequence: LSCKASGYIFTS [SEQ. ID. No. 46]
- OD at 490 nm, HBcAg binding to support-bound amino terminal deletion peptides (HBcAg [1]): 0.565
- OD at 490 nm, mAb 4-2 binding to HBcAg (HBcAg [3]): 0.777
